From PMC8621456, “New Investigations with Lupane Type A-Ring Azepane Triterpenoids for Antimycobacterial Drug Candidate Design” (International Journal of Molecular Sciences, 2021)
≈ marks a conversion by molar mass, not a printed value. Read-outs that look alike come from different tables or passages of the source. Marks after values point to notes of the source that are not given here.

Tests used:
H37Rv (gyrA^D94K) [1] = conditions: cited from earlier work
H37Rv (rpoB^S450L) [2] = conditions: cited from earlier work
[3] = test system: M. tuberculosis strain H37Rv; format: cell-based, Mycobacterium tuberculosis; conditions: 2× the MIC
H37Rv (gyrA^D94K) [4] = format: cell-based, Mycobacterium tuberculosis
H37Rv (rpoB^S450L) [5] = format: cell-based, Mycobacterium tuberculosis
H37Rv (katG^del) = assay: microbe, parasite or virus in culture; format: cell-based; conditions: Mycobacterium tuberculosis, isoniazid mono-resistant strain

C=C(C)[C@@H]1CC[C@]2(CO)CC[C@]3(C)[C@H](CC[C@@H]4[C@@]5(C)CCCNC(C)(C)[C@@H]5CC[C@]43C)[C@@H]12 [Compound 1, azepanobetulin]
MIC (µM) H37Rv (gyrA^D94K) (H37Rv (gyrA^D94K) [1]): 4 * µM | MIC (µM) H37Rv (rpoB^S450L) (H37Rv (rpoB^S450L) [2]): 4 * µM | FoR (order of magnitude stated in text) [3]: 10^−6

C=C(C)[C@@H]1CC[C@]2(C)CC[C@]3(C)[C@H](CC[C@@H]4[C@@]5(C)CCCNC(C)(C)[C@@H]5CC[C@]43C)[C@@H]12 [Compound 2, azepano-lupeol]
MIC (µM) H37Rv (gyrA^D94K) (H37Rv (gyrA^D94K) [4]): 4 µM (≈ 1.7 µg/mL) | MIC (µM) H37Rv (rpoB^S450L) (H37Rv (rpoB^S450L) [5]): 4 µM (≈ 1.7 µg/mL) | MIC (H37Rv (katG^del)): 4 µM (≈ 1.7 µg/mL)

C=C(C)[C@@H]1CC[C@]2(CN)CC[C@]3(C)[C@H](CC[C@@H]4[C@@]5(C)CCCNC(C)(C)[C@@H]5CC[C@]43C)[C@@H]12 [Compound 3]
MIC (µM) H37Rv (gyrA^D94K) (H37Rv (gyrA^D94K) [4]): 8 µM (≈ 3.53 µg/mL) | MIC (µM) H37Rv (rpoB^S450L) (H37Rv (rpoB^S450L) [5]): 4 µM (≈ 1.76 µg/mL) | MIC (H37Rv (katG^del)): 4 µM (≈ 1.76 µg/mL)

C=C(C)[C@@H]1CC[C@]2(COC(=O)c3ccccc3C(=O)O)CC[C@]3(C)[C@H](CC[C@@H]4[C@@]5(C)CCCNC(C)(C)[C@@H]5CC[C@]43C)[C@@H]12 [Compound 4]
MIC (µM) H37Rv (gyrA^D94K) (H37Rv (gyrA^D94K) [4]): 16 µM (≈ 9.44 µg/mL) | MIC (µM) H37Rv (rpoB^S450L) (H37Rv (rpoB^S450L) [5]): 8 µM (≈ 4.72 µg/mL) | MIC (H37Rv (katG^del)): 8 µM (≈ 4.72 µg/mL)

C=C(C)[C@@H]1CC[C@]2(COC(=O)c3cccnc3)CC[C@]3(C)[C@H](CC[C@@H]4[C@@]5(C)CCCNC(C)(C)[C@@H]5CC[C@]43C)[C@@H]12 [Compound 5]
MIC (µM) H37Rv (gyrA^D94K) (H37Rv (gyrA^D94K) [4]): 8 µM (≈ 4.37 µg/mL) | MIC (µM) H37Rv (rpoB^S450L) (H37Rv (rpoB^S450L) [5]): 8 µM (≈ 4.37 µg/mL) | MIC (H37Rv (katG^del)): 4 µM (≈ 2.19 µg/mL)

C=C(C)[C@@H]1CC[C@]2(COS(=O)(=O)c3ccc(C)cc3)CC[C@]3(C)[C@H](CC[C@@H]4[C@@]5(C)CCCNC(C)(C)[C@@H]5CC[C@]43C)[C@@H]12 [Compound 6]
MIC (µM) H37Rv (gyrA^D94K) (H37Rv (gyrA^D94K) [4]): 4 µM (≈ 2.38 µg/mL) | MIC (µM) H37Rv (rpoB^S450L) (H37Rv (rpoB^S450L) [5]): 4 µM (≈ 2.38 µg/mL) | MIC (H37Rv (katG^del)): 4 µM (≈ 2.38 µg/mL)

C=C(C)[C@@H]1CC[C@]2(C=NNC(=O)c3ccncc3)CC[C@]3(C)[C@H](CC[C@@H]4[C@@]5(C)CCCNC(C)(C)[C@@H]5CC[C@]43C)[C@@H]12 [Compound 7]
MIC (µM) H37Rv (gyrA^D94K) (H37Rv (gyrA^D94K) [4]): 0.5 µM (≈ 0.279 µg/mL) | MIC (µM) H37Rv (rpoB^S450L) (H37Rv (rpoB^S450L) [5]): 0.5 µM (≈ 0.279 µg/mL) | MIC (H37Rv (katG^del)): 8 µM (≈ 4.47 µg/mL)

C=C(C)[C@@H]1CC[C@]2(C(=O)NC(CO)Cc3ccccc3)CC[C@]3(C)[C@H](CC[C@@H]4[C@@]5(C)CCCNC(C)(C)[C@@H]5CC[C@]43C)[C@@H]12 (some centres unmarked) [Compound 8]
MIC (µM) H37Rv (gyrA^D94K) (H37Rv (gyrA^D94K) [4]): 4 µM (≈ 2.36 µg/mL) | MIC (µM) H37Rv (rpoB^S450L) (H37Rv (rpoB^S450L) [5]): 4 µM (≈ 2.36 µg/mL) | MIC (H37Rv (katG^del)): 4 µM (≈ 2.36 µg/mL)

C=C(C)[C@@H]1CC[C@]2(C(=O)N3CCN(C)CC3)CC[C@]3(C)[C@H](CC[C@@H]4[C@@]5(C)CCCNC(C)(C)[C@@H]5CC[C@]43C)[C@@H]12 [Compound 9]
MIC (µM) H37Rv (gyrA^D94K) (H37Rv (gyrA^D94K) [4]): 2 µM (≈ 1.08 µg/mL) | MIC (µM) H37Rv (rpoB^S450L) (H37Rv (rpoB^S450L) [5]): 2 µM (≈ 1.08 µg/mL) | MIC (H37Rv (katG^del)): 1 µM (≈ 0.538 µg/mL)

C=C(C)[C@@H]1CC[C@]2(C(=O)NC3CCCCC3)CC[C@]3(C)[C@H](CC[C@@H]4[C@@]5(C)CCCNC(C)(C)[C@@H]5CC[C@]43C)[C@@H]12 [Compound 10]
MIC (µM) H37Rv (gyrA^D94K) (H37Rv (gyrA^D94K) [4]): 4 µM (≈ 2.15 µg/mL) | MIC (µM) H37Rv (rpoB^S450L) (H37Rv (rpoB^S450L) [5]): 4 µM (≈ 2.15 µg/mL) | MIC (H37Rv (katG^del)): 4 µM (≈ 2.15 µg/mL)

C=C(C)[C@@H]1CC[C@]2(COC(C)=O)CC[C@]3(C)[C@H](CC[C@@H]4[C@@]5(C)CCCN(C(C)=O)C(C)(C)[C@@H]5CC[C@]43C)[C@@H]12 [Compound 11]
MIC (µM) H37Rv (gyrA^D94K) (H37Rv (gyrA^D94K) [4]): 8 µM (≈ 4.21 µg/mL) | MIC (µM) H37Rv (rpoB^S450L) (H37Rv (rpoB^S450L) [5]): 4 µM (≈ 2.1 µg/mL)

C=C(C)[C@@H]1CC[C@]2(COC(C)=O)CC[C@]3(C)[C@H](CC[C@@H]4[C@@]5(C)CCCN(C(=O)c6cccnc6)C(C)(C)[C@@H]5CC[C@]43C)[C@@H]12 [Compound 12]
MIC (µM) H37Rv (gyrA^D94K) (H37Rv (gyrA^D94K) [4]): >32 µM | MIC (µM) H37Rv (rpoB^S450L) (H37Rv (rpoB^S450L) [5]): 32 µM (≈ 18.8 µg/mL)

CC(=O)[C@@H]1CC[C@]2(COS(=O)(=O)c3ccc(C)cc3)CC[C@]3(C)[C@H](CC[C@@H]4[C@@]5(C)CCCNC(C)(C)[C@@H]5CC[C@]43C)[C@@H]12 [Compound 13]
MIC (µM) H37Rv (gyrA^D94K) (H37Rv (gyrA^D94K) [4]): 16 µM (≈ 9.57 µg/mL) | MIC (µM) H37Rv (rpoB^S450L) (H37Rv (rpoB^S450L) [5]): 8 µM (≈ 4.78 µg/mL) | MIC (H37Rv (katG^del)): 8 µM (≈ 4.78 µg/mL)

C=C(CBr)[C@@H]1CC[C@]2(COC(C)=O)CC[C@]3(C)[C@H](CC[C@@H]4[C@@]5(C)CCCNC(C)(C)[C@@H]5CC[C@]43C)[C@@H]12 [Compound 14]
MIC (µM) H37Rv (gyrA^D94K) (H37Rv (gyrA^D94K) [4]): >32 µM | MIC (µM) H37Rv (rpoB^S450L) (H37Rv (rpoB^S450L) [5]): >32 µM | MIC (H37Rv (katG^del)): 16 µM (≈ 9 µg/mL)

C=C(CN=[N+]=[N-])[C@@H]1CC[C@]2(COC(C)=O)CC[C@]3(C)[C@H](CC[C@@H]4[C@@]5(C)CCCNC(C)(C)[C@@H]5CC[C@]43C)[C@@H]12 [Compound 15]
MIC (µM) H37Rv (gyrA^D94K) (H37Rv (gyrA^D94K) [4]): >32 µM | MIC (µM) H37Rv (rpoB^S450L) (H37Rv (rpoB^S450L) [5]): >32 µM | MIC (H37Rv (katG^del)): 32 µM (≈ 16.8 µg/mL)

CC1(C)CCC23CCC4(C)C(CCC5C6(C)CCCNC(C)(C)C6CCC54C)C2C1OC3 (centres unmarked) [Compound 17]
MIC (µM) H37Rv (gyrA^D94K) (H37Rv (gyrA^D94K) [4]): 16 µM (≈ 7.07 µg/mL) | MIC (µM) H37Rv (rpoB^S450L) (H37Rv (rpoB^S450L) [5]): 8 µM (≈ 3.53 µg/mL) | MIC (H37Rv (katG^del)): 8 µM (≈ 3.53 µg/mL)

CC(C)=C1CCC=C2CC[C@]3(C)[C@H](CC[C@@H]4[C@@]5(C)CCCNC(C)(C)[C@@H]5CC[C@]43C)[C@H]21 [Compound 18]
MIC (µM) H37Rv (gyrA^D94K) (H37Rv (gyrA^D94K) [4]): 8 µM (≈ 3.39 µg/mL) | MIC (µM) H37Rv (rpoB^S450L) (H37Rv (rpoB^S450L) [5]): 16 µM (≈ 6.78 µg/mL) | FoR (order of magnitude stated in text) [3]: 10^−6

C#CCNC(=O)[C@]12CC[C@@H](C(=C)C)[C@@H]1[C@H]1CC[C@@H]3[C@@]4(C)CCCNC(C)(C)[C@@H]4CC[C@@]3(C)[C@]1(C)CC2 [Compound 20, 17-(Propargyl)-3-deoxo-3a-homo-3a-aza-lup-20(29)-en-carboxamide]
MIC (µM) H37Rv (gyrA^D94K) (H37Rv (gyrA^D94K) [4]): 4 µM (≈ 1.97 µg/mL) | MIC (µM) H37Rv (rpoB^S450L) (H37Rv (rpoB^S450L) [5]): 8 µM (≈ 3.94 µg/mL) | MIC (H37Rv (katG^del)): 4 µM (≈ 1.97 µg/mL)

NNC(=O)c1ccncc1 [Isoniazid, reference compound]
MIC (µM) H37Rv (gyrA^D94K) (H37Rv (gyrA^D94K) [4]): 0.06 µM (≈ 0.00823 µg/mL) | MIC (µM) H37Rv (rpoB^S450L) (H37Rv (rpoB^S450L) [5]): 0.06 µM (≈ 0.00823 µg/mL) | MIC (H37Rv (katG^del)): > 2 µM | FoR (order of magnitude stated in text) [3]: 10^−4

COc1c(N2C[C@@H]3CCCN[C@@H]3C2)c(F)cc2c(=O)c(C(=O)O)cn(C3CC3)c12 [Moxifloxacin, reference compound]
MIC (µM) H37Rv (gyrA^D94K) (H37Rv (gyrA^D94K) [4]): >2 µM | MIC (µM) H37Rv (rpoB^S450L) (H37Rv (rpoB^S450L) [5]): 0.03 µM (≈ 0.012 µg/mL) | MIC (H37Rv (katG^del)): 0.03 µM (≈ 0.012 µg/mL)

O=[N+]([O-])c1cn2c(n1)OC[C@@H](OCc1ccc(OC(F)(F)F)cc1)C2 [Pretomanid, reference compound]
MIC (µM) H37Rv (gyrA^D94K) (H37Rv (gyrA^D94K) [4]): 0.125 µM (≈ 0.0449 µg/mL) | MIC (µM) H37Rv (rpoB^S450L) (H37Rv (rpoB^S450L) [5]): 0.06 µM (≈ 0.0216 µg/mL) | MIC (H37Rv (katG^del)): 0.06 µM (≈ 0.0216 µg/mL)

CO[C@H]1/C=C/O[C@@]2(C)Oc3c(C)c(O)c4c(O)c(c(/C=N/N5CCN(C)CC5)c(O)c4c3C2=O)NC(=O)/C(C)=C\C=C\[C@H](C)[C@H](O)[C@@H](C)[C@@H](O)[C@@H](C)[C@H](OC(C)=O)[C@@H]1C [Rifampin, reference compound]
MIC (µM) H37Rv (gyrA^D94K) (H37Rv (gyrA^D94K) [4]): ≤0.004 µM | MIC (µM) H37Rv (rpoB^S450L) (H37Rv (rpoB^S450L) [5]): >1 µM | MIC (H37Rv (katG^del)): ≤ 0.004 µM
